The numbers were not newly measured in patent publication US9808468B2, “Formulation of meloxicam” (ICEUTICA PTY LTD., priority 2014, dated 2017), which cites them from elsewhere.

Structures are written as SMILES.

Regarding `Cc1cnc(NC(=O)C2=C(O)c3ccccc3S(=O)(=O)N2C)s1` [Meloxicam, 4-hydroxy-2-methyl-N-(5-methyl-2-thiazolyl)-2H-1,2-benzothiazine-3-carboxamide-1,1-dioxide], the solubility in water result is “practically insoluble”.
